Read-outs that look alike come from different tables or passages of the source. Values belong to the compound of their own block, whether it stands above or below them.
Key:
[1] = target: T1, polyamine binding site (ifenprodil binding site at the NMDA receptor/ion channel complex) (Rattus norvegicus, UniProt P35439+Q00960); test: Ifenprodil binding ([3H]-ifenprodil displacement, rat forebrain membranes)
T1 construct: Homogenates of rat forebrain were centrifuged repeatedly; from tissue; host or cells: rat forebrain membranes
Procedure: (§1) Additionally, in the binding experiment this active compound displaces tritiated ifenprodil in the forebrain of rats from its binding site (for method see Schoemaker et al., European J. Pharmacol. 176 (1990), 249-250), which represents a receptor at the N-methyl-D-aspartate (NMDA) receptor/ion channel complex as a subtype of the glutamate receptors.
1. Ifenprodil binding (Schoemaker et al., 1990)
Homogenates of rat forebrain were centrifuged repeatedly. The last membrane […] (10 mg/ml) was used to determine the specific binding in the presence of 1.15 nM [^3H]-ifenprodil in 5 ml of buffer solution at pH 7.4. The unspecific binding was determined in the presence of 100 μM of ifenprodil.

rats [2] = test: Inhibition of apomorphine-induced stereotypical behaviour in rats; type: in vivo, rat; conditions: for ED50: Rattus norvegicus, sc, read-out: Inhibition of apomorphine-induced stereotypical behaviour in rats 50% inhibition/ED50 s.c. at:
Excerpt: as §1
2. Inhibition of apomorphine-induced stereotypical behaviour in rats (Puech et al., 1978):
Stereotypical behaviour (unmotivated sniffling, licking, chewing, rhythmic movements with the forepaws) was induced by administration of 0.5 mg/kg s.c. of apomorphine. The intensity of the ensuing stereotypical behaviour was assessed every 5 minutes for each rat for a period of 30 minutes using a rating system (0-3). The total score was used as a measure of the occurence of the stereotypical behaviour.

rats [3] = test: Catalepsy induction in rats; type: in vivo, rat
Procedure: as §1
3. Catalepsy induction in rats (Stanley and Glick, 1976):
The occurrence of catalepsy in rats was measured by placing a hindpaw on a 3 cm high block and scoring every 5 minutes for a period of 30 minutes the time for which the rat stayed in this unnatural position using a rating system (score 0-3). The total score was used as a measure of the intensity of the catalepsy.

mice [4] = test: Apomorphine-induced climbing behaviour in mice; type: in vivo, mouse
rats [5] = test: Conditioned avoiding reaction in rats; type: in vivo, rat
rats [6] = test: Ultrasound vocalization after electric stimulation in rats; type: in vivo, rat; conditions: proof of the anxiolytic action
mice [7] = test: Spontaneous behaviour of mice (Irwin); type: in vivo, mouse
rats [8] = test: Spontaneous behaviour of rats (Irwin); type: in vivo, rat
[9] = rat forebrain homogenate, 1.15 nM [3H]-ifenprodil, pH 7.4, methanesulfonate salts, read-out: Ifenprodil binding in vitro 50% displacement/IC50 at:
[10] = apomorphine 0.5 mg/kg s.c., methanesulfonate salts

T1 sequence (Q00960 27-1482, other chains not shown): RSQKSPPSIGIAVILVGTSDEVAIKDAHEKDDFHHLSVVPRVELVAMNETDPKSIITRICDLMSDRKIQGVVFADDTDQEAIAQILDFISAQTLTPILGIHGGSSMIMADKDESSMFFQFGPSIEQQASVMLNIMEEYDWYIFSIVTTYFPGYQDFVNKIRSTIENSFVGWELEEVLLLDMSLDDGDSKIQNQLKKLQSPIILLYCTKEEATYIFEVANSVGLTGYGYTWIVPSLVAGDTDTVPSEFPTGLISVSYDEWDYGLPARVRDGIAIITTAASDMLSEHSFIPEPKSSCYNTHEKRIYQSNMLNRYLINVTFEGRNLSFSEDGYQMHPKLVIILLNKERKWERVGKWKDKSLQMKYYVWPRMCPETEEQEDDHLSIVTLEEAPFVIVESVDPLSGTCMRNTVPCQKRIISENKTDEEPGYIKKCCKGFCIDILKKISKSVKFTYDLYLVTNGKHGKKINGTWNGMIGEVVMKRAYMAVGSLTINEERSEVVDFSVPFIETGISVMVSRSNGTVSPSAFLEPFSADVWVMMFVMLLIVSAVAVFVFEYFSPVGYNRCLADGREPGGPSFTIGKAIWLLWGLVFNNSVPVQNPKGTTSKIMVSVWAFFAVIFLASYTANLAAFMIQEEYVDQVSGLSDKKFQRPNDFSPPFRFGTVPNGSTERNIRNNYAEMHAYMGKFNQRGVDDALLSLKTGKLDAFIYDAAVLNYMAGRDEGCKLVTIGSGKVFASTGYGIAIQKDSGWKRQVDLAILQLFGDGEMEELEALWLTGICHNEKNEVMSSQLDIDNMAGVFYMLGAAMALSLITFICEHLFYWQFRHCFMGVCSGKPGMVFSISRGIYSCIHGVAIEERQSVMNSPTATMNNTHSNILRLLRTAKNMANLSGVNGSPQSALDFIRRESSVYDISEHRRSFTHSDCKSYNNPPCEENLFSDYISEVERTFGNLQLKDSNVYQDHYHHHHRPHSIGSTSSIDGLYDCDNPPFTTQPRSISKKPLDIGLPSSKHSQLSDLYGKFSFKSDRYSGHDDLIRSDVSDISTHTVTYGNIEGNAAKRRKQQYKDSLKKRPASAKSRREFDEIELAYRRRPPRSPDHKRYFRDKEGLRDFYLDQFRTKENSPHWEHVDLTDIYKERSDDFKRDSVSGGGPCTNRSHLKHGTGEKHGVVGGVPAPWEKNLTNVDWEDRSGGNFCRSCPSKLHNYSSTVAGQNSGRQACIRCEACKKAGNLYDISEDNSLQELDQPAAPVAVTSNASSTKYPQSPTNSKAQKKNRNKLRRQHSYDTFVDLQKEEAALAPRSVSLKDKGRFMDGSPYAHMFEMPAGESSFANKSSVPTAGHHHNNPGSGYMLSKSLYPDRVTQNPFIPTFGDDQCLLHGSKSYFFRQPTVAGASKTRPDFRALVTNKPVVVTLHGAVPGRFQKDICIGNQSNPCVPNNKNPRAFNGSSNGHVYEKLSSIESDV

IC50 [1, 9]: > 1000 nM
Compound: Cc1ccc(N2C[C@H](CN3CCC(Cc4ccc(F)cc4)CC3)OC2=O)cc1 [R = CH3, reference compound]
ED50 (rats [2]; [10]): > 10 mg/kg

IC50 [1, 9]: > 1000 nM
Compound: O=C1O[C@@H](CN2CCC(Cc3ccc(F)cc3)CC2)CN1c1ccc(F)cc1 [R = F, reference compound]
ED50 (rats [2]; [10]): > 10 mg/kg

Second part, the compound before the results:

Compound: COc1ccc(N2C[C@H](CN3CCC(Cc4ccc(F)cc4)CC3)OC2=O)cc1 [R = OCH3, (5S)-(−)-5-[4-(4-fluorobenzyl)-1-piperidinylmethyl]-3-(4-methoxyphenyl)-oxazolidin-2-one, reference compound]
IC50 [1, 9]: > 1000 nM
ED50 (rats [2]; [10]): > 10 mg/kg

Compound: O=C1O[C@@H](CN2CCC(Cc3ccc(F)cc3)CC2)CN1c1ccc(O)cc1 [R = OH, (5S)-(−)-5-[4-(4-fluorobenzyl)-1-piperidinylmethyl]-3-(4-hydroxyphenyl)oxazolidin-2-one]
IC50 ([1]; in vitro, read-out: IC50 for the polyamine binding site): 10 nM
IC50 [1, 9]: 10 nM
Inhibition of apomorphine-induced stereotypical behaviour in rats 50% inhibition/ED50 s.c. at: (rats [2]; s.c., apomorphine 0.5 mg/kg s.c., methanesulfonate salts): 2.8 mg/kg
Catalepsy induction Rat (rats [3]; 30 mg/kg s.c., rat, methanesulfonate salt): 0%
Catalepsy ED50 (rats [3]; in vivo animal models): > 30 mg/kg

Compound: O=C1OC(CN2CCC(Cc3ccc(F)cc3)CC2)CN1c1ccc(O)cc1 (stereo not shown) [formula I, 5-[4-(4-fluorobenzyl)piperidin-1-ylmethyl]-3-(4-hydroxy-phenyl) oxazolidin-2-one]
displacement of tritiated ifenprodil from its binding site ([1]; forebrain of rats): displaces
apomorphine-induced stereotypical behaviour in rats (in words) (rats [2]): inhibits
occurrence of catalepsy (in words) (rats [3]; rat, in vivo): without the occurrence of catalepsy
apomorphine-induced climbing behaviour in mice (mice [4]): inhibits
conditioned avoiding reaction in rats (rats [5]): inhibits
ultrasound vocalization after electric stimulation in rats (rats [6]): inhibits
effect on the spontaneous behaviour of mice (mice [7]): depressive effect
effect on the spontaneous behaviour of rats (rats [8]): depressive effect

Reference: patent publication US6413989B1, “Piperidinylmethyloxazolidinone derivative” (Merck Patent Gesellschaft mit beschrankter Haftung, priority 1997, dated 2002)
